Reference: patent publication US7192906B2, “Substituted pyrazole derivatives, production process thereof, and herbicide compositions containing the derivatives” (SDS Biotech K.K., priority 2001, dated 2007)

Columns and labels:
Format in all cases: in vivo
Rice (Oryza sativa) = experiment: Test Example 3 paddy field treatment, crop phytotoxicity; conditions: active ingredient 1 kg per hectare, index 0-5; for Herbicidal activity (phytotoxicity) OS: Table 6, paddy field treatment, transplanted rice, 21st day after dropping; for Herbicidal activity OS (phytotoxicity to rice): paddy field treatment, transplanted rice Koshihikari, wettable powder, 21st day after the dropping
Protocol: (§1) A plastic pot of 130 cm^2 was filled with paddy soil, and soil puddling was carried out to adjust the submerged depth to 4 cm. Subsequently, seeds of Echinochloa crusgalli, Monochoria vaginalis, Ammannia multiflora and Scirpus juncoides were sowed, and rice (Oryza sative, variety: Koshihikari) of two-leaf period was transplanted by 2 rice plants of 1 stub per pot at a depth of 3 cm. On the 10th day after the transplantation, the wettable powder prepared in Formulation Example 1 was diluted with water such that the amount of the active ingredient became 1 kg per hectare, and then dropped to diffuse on the water surface. On the 21st day after the dropping, observation and evaluation were carried out according to the aforesaid criteria.
(§2) Herbicidal activity was evaluated based on the following criteria.
(§3) • 5: herbicidal effect of not less than 90%, or phytotoxicity of 90% or more • 4: herbicidal effect of not less than 70% and less than 90%, or phytotoxicity of 70% or more and less than 90% • 3: herbicidal effect of not less than 50% and less than 70%, or phytotoxicity of 50% or more and less than 70% • 2: herbicidal effect of not less than 30% and less than 50%, or phytotoxicity of 30% or more and less than 50% • 1: herbicidal effect of not less than 10% and less than 30%, or phytotoxicity of 10% or more and less than 30% • 0: herbicidal effect of not less than 0% and less than 10%, or phytotoxicity of 0% or more and less than 10%

Monochoria vaginalis = experiment: Test Example 3 paddy field treatment; conditions: active ingredient 1 kg per hectare, index 0-5
Protocol: as §1, §2, §3

Scirpus juncoides = experiment: Test Example 3 paddy field treatment; conditions: active ingredient 1 kg per hectare, index 0-5
Protocol: as §1, §2, §3

Ammannia multiflora = experiment: Test Example 3 paddy field treatment; conditions: active ingredient 1 kg per hectare, index 0-5
Protocol: as §1, §2, §3

Echinochloa crusgalli = experiment: Test Example 3 paddy field treatment; conditions: active ingredient 1 kg per hectare, index 0-5
Protocol: as §1, §2, §3

Chenopodium album = experiment: Test Example 1 upland field foliage treatment; conditions: Table 4, upland field foliage treatment, index 0-5
Protocol: (§4) A plastic pot of 130 cm^2 was filled with upland soil. Subsequently, weed seeds of Setaria viridis, Digitaria adscendens, Chenopodium album and Stellaria media, and crop seeds of soybean (Glycine max) and wheat (Triticum aestivum), were sowed and covered with soil of about 1 cm thickness. On the 14th day after the sowing, the wettable powder prepared in Formulation Example 1 was diluted with water such that the amount of the active ingredient became 1 kg per hectare, and then uniformly applied to the plant leaf surfaces. On the 21st day after the application, observation and evaluation were carried out according to the criteria described below.
as §2, §3

Setaria viridis = experiment: Test Example 1 upland field foliage treatment; conditions: Table 4, upland field foliage treatment, index 0-5
Protocol: as §4, §2, §3

Digitaria adscendens = experiment: Test Example 1 upland field foliage treatment; conditions: Table 4, upland field foliage treatment, index 0-5
Protocol: as §4, §2, §3

Stellaria media = experiment: Test Example 1 upland field foliage treatment; conditions: Table 4, upland field foliage treatment, index 0-5
Protocol: as §4, §2, §3

soybean (Glycine max) = experiment: Test Example 1 upland field foliage treatment, crop phytotoxicity; conditions: Table 4, upland field foliage treatment, index 0-5
Protocol: as §4, §2, §3

[1] = system: wheat (Triticum aestivum); experiment: as above; conditions: Table 4, upland field foliage treatment, index 0-5
Protocol: as §4, §2, §3

[2] = Table 6, paddy field treatment, 21st day after dropping
[3] = paddy field treatment, wettable powder, 21st day after the dropping

SMILES	Herbicidal activity (phytotoxicity) OS (Rice (Oryza sativa))	Herbicidal activity MV (Monochoria vaginalis; [2])	Herbicidal activity SJ (Scirpus juncoides; [2])	Herbicidal activity AM (Ammannia multiflora; [2])	Herbicidal activity EC (Echinochloa crusgalli; [2])	Herbicidal activity OS (phytotoxicity to rice) (Rice (Oryza sativa))	Herbicidal activity MV (Monochoria vaginalis; [3])	Herbicidal activity SJ (Scirpus juncoides; [3])	Herbicidal activity AM (Ammannia multiflora; [3])	Herbicidal activity EC (Echinochloa crusgalli; [3])	also measured
CNC(=O)C(Cn1cc(C)c(-c2ccc(OC)c(F)c2)n1)=NOC [Compound 76]	0 (herbicidal effect of not less than 0% and less than 10%, or phytotoxicity of 0% or more and less than 10%)	5 (herbicidal effect of not less than 90%, or phytotoxicity of 90% or more)	5 (herbicidal effect of not less than 90%, or phytotoxicity of 90% or more)	5 (herbicidal effect of not less than 90%, or phytotoxicity of 90% or more)	5 (herbicidal effect of not less than 90%, or phytotoxicity of 90% or more)						
CNC(=O)C(Cn1cc(C)c(-c2cc(F)cc(F)c2)n1)=NOC [Compound 60]	0 (herbicidal effect of not less than 0% and less than 10%, or phytotoxicity of 0% or more and less than 10%)	5 (herbicidal effect of not less than 90%, or phytotoxicity of 90% or more)	5 (herbicidal effect of not less than 90%, or phytotoxicity of 90% or more)	5 (herbicidal effect of not less than 90%, or phytotoxicity of 90% or more)	5 (herbicidal effect of not less than 90%, or phytotoxicity of 90% or more)						
CON=C(Cn1cc(C)c(-c2ccccc2)n1)C(=O)NNC(=O)OC [Compound 123]	0 (herbicidal effect of not less than 0% and less than 10%, or phytotoxicity of 0% or more and less than 10%)	4 (herbicidal effect of not less than 70% and less than 90%, or phytotoxicity of 70% or more and less than 90%)	3 (herbicidal effect of not less than 50% and less than 70%, or phytotoxicity of 50% or more and less than 70%)	4 (herbicidal effect of not less than 70% and less than 90%, or phytotoxicity of 70% or more and less than 90%)	3 (herbicidal effect of not less than 50% and less than 70%, or phytotoxicity of 50% or more and less than 70%)						
CNC(=O)C(Cn1cc(C)c(-c2cccc(Br)c2)n1)=NOC [Compound 49]						1 (herbicidal effect of not less than 10% and less than 30%, or phytotoxicity of 10% or more and less than 30%)	5 (herbicidal effect of not less than 90%, or phytotoxicity of 90% or more)	5 (herbicidal effect of not less than 90%, or phytotoxicity of 90% or more)	5 (herbicidal effect of not less than 90%, or phytotoxicity of 90% or more)	5 (herbicidal effect of not less than 90%, or phytotoxicity of 90% or more)	
CNC(=O)C(Cn1cc(C)c(-c2ccc(C(F)(F)F)cc2F)n1)=NOC [Compound 85]											Herbicidal activity CA: Chenopodium album (Chenopodium album): 5 (herbicidal effect of not less than 90%, or phytotoxicity of 90% or more); Herbicidal activity SV: Setaria viridis (Setaria viridis): 4 (herbicidal effect of not less than 70% and less than 90%, or phytotoxicity of 70% or more and less than 90%); Herbicidal activity DA: Digitaria adscendens (Digitaria adscendens): 4 (herbicidal effect of not less than 70% and less than 90%, or phytotoxicity of 70% or more and less than 90%); Herbicidal activity SM: Stellaria media (Stellaria media): 5 (herbicidal effect of not less than 90%, or phytotoxicity of 90% or more); Herbicidal activity (phytotoxicity) GM: Soybean (Glycine max) (soybean (Glycine max)): 0 (herbicidal effect of not less than 0% and less than 10%, or phytotoxicity of 0% or more and less than 10%); Herbicidal activity (phytotoxicity) TA: Wheat (Triticum aestivum) [1]: 0 (herbicidal effect of not less than 0% and less than 10%, or phytotoxicity of 0% or more and less than 10%)
CNC(=O)C(Cn1cc(C)c(-c2ccc(C(C)C)cc2)n1)=NOC [Compound 38]						0 (herbicidal effect of not less than 0% and less than 10%, or phytotoxicity of 0% or more and less than 10%)	5 (herbicidal effect of not less than 90%, or phytotoxicity of 90% or more)	5 (herbicidal effect of not less than 90%, or phytotoxicity of 90% or more)	5 (herbicidal effect of not less than 90%, or phytotoxicity of 90% or more)	5 (herbicidal effect of not less than 90%, or phytotoxicity of 90% or more)	
CNC(=O)C(Cn1cc(C)c(-c2ccccc2C)n1)=NOC [Compound 35]						0 (herbicidal effect of not less than 0% and less than 10%, or phytotoxicity of 0% or more and less than 10%)	4 (herbicidal effect of not less than 70% and less than 90%, or phytotoxicity of 70% or more and less than 90%)	4 (herbicidal effect of not less than 70% and less than 90%, or phytotoxicity of 70% or more and less than 90%)	4 (herbicidal effect of not less than 70% and less than 90%, or phytotoxicity of 70% or more and less than 90%)	5 (herbicidal effect of not less than 90%, or phytotoxicity of 90% or more)	
CON=C(Cn1cc(C)c(-c2ccccc2)n1)C(=O)NC(C)c1ccccc1 (centres unmarked) [Compound 31]						0 (herbicidal effect of not less than 0% and less than 10%, or phytotoxicity of 0% or more and less than 10%)	5 (herbicidal effect of not less than 90%, or phytotoxicity of 90% or more)	4 (herbicidal effect of not less than 70% and less than 90%, or phytotoxicity of 70% or more and less than 90%)	4 (herbicidal effect of not less than 70% and less than 90%, or phytotoxicity of 70% or more and less than 90%)	3 (herbicidal effect of not less than 50% and less than 70%, or phytotoxicity of 50% or more and less than 70%)	
CNC(=O)C(Cn1cc(C)c(-c2c(F)cccc2F)n1)=NOC [Compound 58, 2-methoxyimino-3-((2′,6′-difluorophenyl)-4-methyl-pyrazole)-1-yl-propanoic acid-N-methylamide]	1 (herbicidal effect of not less than 10% and less than 30%, or phytotoxicity of 10% or more and less than 30%)	5 (herbicidal effect of not less than 90%, or phytotoxicity of 90% or more)	5 (herbicidal effect of not less than 90%, or phytotoxicity of 90% or more)	5 (herbicidal effect of not less than 90%, or phytotoxicity of 90% or more)	5 (herbicidal effect of not less than 90%, or phytotoxicity of 90% or more)						
CNC(=O)C(Cn1cc(C)c(-c2cc(Cl)ccc2Cl)n1)=NOC [Compound 73]	0 (herbicidal effect of not less than 0% and less than 10%, or phytotoxicity of 0% or more and less than 10%)	5 (herbicidal effect of not less than 90%, or phytotoxicity of 90% or more)	4 (herbicidal effect of not less than 70% and less than 90%, or phytotoxicity of 70% or more and less than 90%)	4 (herbicidal effect of not less than 70% and less than 90%, or phytotoxicity of 70% or more and less than 90%)	5 (herbicidal effect of not less than 90%, or phytotoxicity of 90% or more)						
CNC(=O)C(Cn1cc(C)c(-c2ccc(C(F)(F)F)c(F)c2)n1)=NOC [Compound 87]	0 (herbicidal effect of not less than 0% and less than 10%, or phytotoxicity of 0% or more and less than 10%)	5 (herbicidal effect of not less than 90%, or phytotoxicity of 90% or more)	5 (herbicidal effect of not less than 90%, or phytotoxicity of 90% or more)	5 (herbicidal effect of not less than 90%, or phytotoxicity of 90% or more)	5 (herbicidal effect of not less than 90%, or phytotoxicity of 90% or more)						
